Drawing on patent US12673927B2, “Substituted aminothiazoles as DGKzeta inhibitors for immune activation” (Deutsches Krebsforschungszentrum, priority 2020, dated 2026), this text covers IC50 for 28 compounds.

Usually IC50 stands for the concentration needed to halve the response being measured.

One assay deals with T1, human DGKζ (Homo sapiens, UniProt Q13574).
T1 construct: made in house; host or cells: Sf9 insect cells, baculovirus
T1 sequence (Q13574 with tags, fused parts or gaps): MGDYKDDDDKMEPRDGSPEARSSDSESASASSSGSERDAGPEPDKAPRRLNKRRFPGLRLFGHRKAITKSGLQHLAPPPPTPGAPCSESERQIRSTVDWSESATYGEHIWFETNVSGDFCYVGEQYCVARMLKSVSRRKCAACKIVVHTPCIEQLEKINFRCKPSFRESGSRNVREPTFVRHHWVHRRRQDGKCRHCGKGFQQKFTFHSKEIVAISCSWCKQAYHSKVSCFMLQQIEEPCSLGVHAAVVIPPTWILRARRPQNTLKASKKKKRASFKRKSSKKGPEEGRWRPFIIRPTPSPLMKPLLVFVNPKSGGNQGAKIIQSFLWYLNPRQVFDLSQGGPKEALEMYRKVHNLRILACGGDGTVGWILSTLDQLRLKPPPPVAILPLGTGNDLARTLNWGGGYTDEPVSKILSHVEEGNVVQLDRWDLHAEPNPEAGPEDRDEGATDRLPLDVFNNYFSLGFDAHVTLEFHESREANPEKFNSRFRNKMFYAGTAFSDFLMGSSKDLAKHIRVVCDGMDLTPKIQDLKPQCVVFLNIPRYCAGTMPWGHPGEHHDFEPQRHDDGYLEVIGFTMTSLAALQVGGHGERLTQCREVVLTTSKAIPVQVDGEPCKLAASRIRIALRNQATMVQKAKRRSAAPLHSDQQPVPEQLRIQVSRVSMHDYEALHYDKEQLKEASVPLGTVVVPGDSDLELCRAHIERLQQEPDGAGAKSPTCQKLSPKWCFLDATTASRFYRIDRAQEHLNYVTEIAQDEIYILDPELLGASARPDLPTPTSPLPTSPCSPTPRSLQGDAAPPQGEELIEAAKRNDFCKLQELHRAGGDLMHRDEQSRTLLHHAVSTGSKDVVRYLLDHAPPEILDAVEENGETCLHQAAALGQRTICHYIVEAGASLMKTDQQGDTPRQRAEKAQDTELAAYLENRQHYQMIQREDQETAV
In words: Human DGKζ kinase activity inhibition assay (ADP-Glo). In kind it is biochemical. The settings on record: intermediates (lacking the R2 side chain; comparative); highest test concentration 20 μM; read-out: IC50 values of intermediates in in vitro human DGKζ kinase activity inhibition assays. How it is done: Human DGKζ Kinase Activity Inhibition Assay
Human diacylglycerol kinase zeta (DGKζ) inhibitory activity of compounds of the present invention was quantified employing the human DGKζ kinase activity assay as described in the following paragraphs. In essence, the enzyme activity was measured by quantification of the adenosine-di-phosphate (ADP) generated as a co-product of the enzyme reaction via the “ADP-Glo™ Kinase Assay” kit from the company Promega. This detection system works as follows: In a first step the adenosine-tri-phosphate (ATP) not consumed in the kinase reaction is quantitatively converted to cyclic adenosine-mono-phosphate (cAMP) employing an adenylate cyclase (“ADP-Glo-reagent”), then the adenylate cyclase is stopped and the ADP generated in the kinase reaction is converted to ATP, which subsequently generates in a luciferase-based reaction a glow-luminescence signal (“Kinase Detection Reagent”).
C-terminally FLAG-tagged, recombinant full-length human DGKζ (inhouse expressed in baculovirus infected insect cells, purified using anti-Flag pulldown and size exclusion chromatography) was used as enzyme. As an alternative, commercially available enzyme by Carnabio can be used. As substrate for the kinase, 1,2-dioleoyl-sn-glycerol, reconstituted in octyl-β-D-glucopyranoside micelles, was used. […] Subsequently, 22.55 volumes of a 510 mM solution of octyl-β-D-glucopyranoside (Sigma-Aldrich, Cat. #08001-10G) in 50 mM MOPS buffer (pH 7.4) were added, and the mixture was sonicated in an ultrasonic bath for 20 s. Then 35 volumes of 50 mM MOPS buffer (pH 7.4) were added to yield a solution of 0.28 mM 1,2 dioleoyl-sn-glycerol and 200 mM octyl-β-D-glucopyranoside, which was aliquoted, flash-frozen in liquid nitrogen, and stored at −20° C. until use.
For the assay 50 nl of a 100-fold concentrated solution of the test compound in dimethyl sulfoxide (DMSO, Sigma) was pipetted into either a white 1536-well or a white low-volume 384-well microtiter plate (both Greiner Bio-One, Frickenhausen, Germany). […] The concentration of DGKζ was adjusted depending of the activity of the enzyme lot and was chosen appropriate to have the assay in the linear range, a typical concentration is about 0.1 nM. The reaction was stopped by the addition of 2.5 μL of “ADP-Glo-reagent” (1 to 1.5 diluted with water) and the resulting mixture was incubated at 22° C. for 1 h to convert the ATP not consumed in the kinase reaction completely to cAMP. Subsequently 2.5 μl of the “kinase detection reagent” (1.2 fold more concentrated than recommended by the producer) were added, the resulting mixture was incubated at 22° C. for 1 h and then the luminescence measured with a suitable measurement instrument (e.g. Viewlux™ from Perkin-Elmer). The amount of emitted light was taken as a measure for the amount of ADP generated and thereby for the activity of the DGKζ.
The data were normalised (enzyme reaction without inhibitor=0% inhibition, all other assay components but no enzyme=100% inhibition).
(ADP-Glo first removes unused ATP, then detects ADP through luciferase.)
Turning to `Nc1nc(Nc2ccc(F)cc2)sc1C(=O)c1ccccc1` [Example 62], the IC50 is greater than 20000 nM.

On to `Nc1nc(Nc2ccc(F)cc2F)sc1C(=O)c1ccccc1` [Example 66], for which the half-maximal inhibitory concentration (IC50) is greater than 20000 nM. Still for that read-out and setting: to `Nc1nc(Nc2ccc(F)cc2)sc1C(=O)c1ccc(F)cc1` [Example 65] belongs greater than 20000 nM; to `COc1ccc(Nc2nc(N)c(C(=O)c3ccccc3)s2)cc1` [Example 67], greater than 20000 nM.

The same assay, now with this note: recombinant full-length human DGKζ, 55 μM ATP, 7 μM 1,2-dioleoyl-sn-glycerol, 20 min at 22° C.; read-out: IC50 in vitro human DGKζ kinase activity inhibition assay.
Regarding `Cc1nc(N(c2ccc(F)cc2)C(C)C(N)=O)sc1C(=O)c1ccc(OC(F)F)cc1` (racemic) [Example 54], the IC50 was 20.7 nM.

Regarding `COc1ccc(C(=O)c2sc(N(c3ccc(F)c(F)c3)C(C)C(N)=O)nc2N)cc1` (single isomer, unassigned) [Example 51.1, 2-(N-[4-amino-5-(4-methoxybenzoyl)thiazol-2-yl]-3,4-difluoro-anilino)propanamide], the IC50 was 8.85 nM. On the same count and under the same terms, to `CC(C)NC(=O)COc1ccc(C(=O)c2sc(N(c3ccc(F)cc3)C(C)C(N)=O)nc2N)cc1` (single isomer, unassigned) [Example 152, 2-(N-[4-amino-5-[4-[2-(isopropylamino)-2-oxo-ethoxy]benzoyl]thiazol-2-yl]-4-fluoro-anilino)propanamide] belongs 111 nM. Regarding `CC(C)NC(=O)COc1ccc(C(=O)c2sc(N(c3ccc(F)cc3)C(C)C(N)=O)nc2N)cc1` (single isomer, unassigned) [Example 153, 2-(N-[4-amino-5-[4-[2-(isopropylamino)-2-oxo-ethoxy]benzoyl]thiazol-2-yl]-4-fluoro-anilino)propanamide], the half-inhibitory concentration (IC50) amounted to 107 nM. As to `CC(C(N)=O)N(c1ccc(Cl)c(F)c1)c1nc(N)c(C(=O)c2ccncc2)s1` (single isomer, unassigned) [Example 56.2, 2-(N-[4-amino-5-(pyridine-4-carbonyl)thiazol-2-yl]-4-chloro-3-fluoro-anilino)propanamide], the half-inhibitory concentration (IC50) amounted to 7640 nM. Still for that read-out and setting: to `CC(C(N)=O)N(c1ccc(F)cc1)c1nc(N)c(C(=O)c2ccc(OCC(N)=O)cc2)s1` (single isomer, unassigned) [Example 149, 2-(N-[4-amino-5-[4-(2-amino-2-oxo-ethoxy)benzoyl]thiazol-2-yl]-4-fluoro-anilino)propanamide] belongs 405 nM. Regarding `Cc1ccc(C(=O)c2sc(N(CC(N)=O)c3ccc(F)cc3)nc2N)cc1` (racemic) [Example 72], the IC50 turned out to be 985 nM. Still for that read-out and setting: as for `Cc1cccc(N(c2nc(N)c(C(=O)c3ccccc3)s2)C(C)C(N)=O)c1` (single isomer, unassigned) [Example 76.2, 2-(N-(4-amino-5-benzoyl-thiazol-2-yl)-3-methyl-anilino)propanamide], the figure is 11000 nM; as for `CC(C(N)=O)N(c1ccc(Cl)c(F)c1)c1nc(N)c(C(=O)c2ccc(OC(F)F)nc2)s1` (single isomer, unassigned) [Example 164.2, 2-(N-[4-amino-5-[6-(difluoromethoxy)pyridine-3-carbonyl]thiazol-2-yl]-4-chloro-3-fluoro-anilino)propanamide], 944 nM; as for `CC(C(N)=O)N(c1ccc(F)c(F)c1)c1nc(N)c(C(=O)c2ccc(NC(=O)OCc3ccccc3)cc2)s1` (single isomer, unassigned) [Example 167.1, Benzyl N-[4-[4-amino-2-(N-(2-amino-1-methyl-2-oxo-ethyl)-3,4-difluoro-anilino)thiazole-5-carbonyl]phenyl]carbamate], 3 nM. For `COc1ccc(C(=O)c2sc(N(c3ccc(Cl)c(F)c3)C(C)C(N)=O)nc2N)cn1` (single isomer, unassigned) [Example 172.1, 2-(N-[4-amino-5-(6-methoxypyridine-3-carbonyl)thiazol-2-yl]-4-chloro-3-fluoro-anilino)propanamide], the IC50 turned out to be 24 nM.

Regarding `CC(C(N)=O)N(c1ccc(F)cc1)c1nc(N)c(C(=O)c2ccc(OCC(=O)NCCC34CC5CC(CC(C5)C3)C4)cc2)s1` (single isomer, unassigned) [Example 144], the IC50 came out at 8.79 nM.

As for `CC(C(N)=O)N(c1ccc(F)cc1)c1nc(N)c(C(=O)c2ccc(OCC(=O)Nc3ccc(C(N)=O)cc3)cc2)s1` (single isomer, unassigned) [Example 146, 4-([2-[4-[4-amino-2-(4-fluoro-N-[2-amino-1-methyl-2-oxo-ethyl]anilino)thiazole-5-carbonyl]phenoxy]acetyl]amino]benzamide], the IC50 amounted to 21.6 nM.

As to `CC(C(N)=O)N(c1ccc(Cl)c(F)c1)c1nc(N)c(C(=O)c2ccc(OCc3ccccc3)cc2)s1` (single isomer, unassigned) [Example 166.1, 2-(N-[4-amino-5-(4-benzyloxybenzoyl)thiazol-2-yl]-4-chloro-3-fluoro-anilino)propanamide], the IC50 came to 2 nM.

On to `CC(C(N)=O)N(c1nc(N)c(C(=O)c2ccccc2)s1)c1ccccc1F` (single isomer, unassigned) [Example 75.2, 2-(N-(4-amino-5-benzoyl-thiazol-2-yl)-2-fluoro-anilino)propanamide], for which the IC50 turned out to be 214 nM.

`NC(=O)CN(c1ccc(F)cc1)c1nc(N)c(C(=O)c2ccccc2)s1` (racemic) [Example 71]: the IC50 came out at 2310 nM.

With `CC(C(N)=O)N(c1ccc(F)c(F)c1)c1nc(N)c(C(=O)c2ccc(OC(F)F)cc2)s1` (single isomer, unassigned) [Example 49.1, 2-(N-[4-amino-5-[4-(difluoromethoxy)benzoyl]thiazol-2-yl]-3,4-difluoro-anilino)propanamide], the IC50 worked out at 1030 nM. Regarding `COc1ccc(C(=O)c2sc(N(c3ccc(F)c(F)c3)C(C)C(N)=O)nc2N)cc1` (single isomer, unassigned) [Example 51.2, 2-(N-[4-amino-5-(4-methoxybenzoyl)thiazol-2-yl]-3,4-difluoro-anilino)propanamide], the 50% inhibitory concentration (IC50) came out at 872 nM. As to `CNC(=O)COc1ccc(C(=O)c2sc(N(c3ccc(F)cc3)C(C)C(N)=O)nc2N)cc1` (single isomer, unassigned) [Example 151, 2-(N-[4-amino-5-[4-[2-(methylamino)-2-oxo-ethoxy]benzoyl]thiazol-2-yl]-4-fluoro-anilino)propanamide], the IC50 was 387 nM. In the case of `CC(C(N)=O)N(c1ccc(F)cc1)c1nc(N)c(C(=O)c2ccc(OCC(=O)NCCN3CCCCC3)cc2)s1` (single isomer, unassigned) [Example 148, 2-(N-[4-amino-5-[4-[2-oxo-2-[2-(1-piperidyl)ethylamino]ethoxy]benzoyl]thiazol-2-yl]-4-fluoro-anilino)propanamide], the IC50 was found to be 76.4 nM. The same measure, in the same setting: as for `CC(C(N)=O)N(c1ccc(F)cc1)c1nc(N)c(C(=O)c2ccc(Cl)cc2)s1` (single isomer, unassigned) [Example 38.2, 2-(N-[4-amino-5-(4-chlorobenzoyl)thiazol-2-yl]-4-fluoro-anilino)propanamide], the figure is 7.37 nM; as for `COc1ccc(C(=O)c2sc(N(c3ccc(F)cc3)C(C)C(N)=O)nc2C)cc1` (single isomer, unassigned) [Example 176.1, 2-(4-fluoro-N-[5-(4-methoxybenzoyl)-4-methyl-thiazol-2-yl]anilino)propanamide], 34 nM. The same measure, in the same setting: to `CC(C(N)=O)N(c1ccc(F)cc1)c1nc(N)c(C(=O)c2ccc(OCC(=O)NCC34CC5CC(CC(C5)C3)C4)cc2)s1` (single isomer, unassigned) [Example 143, 2-(N-[5-[4-[2-(1-adamantylmethylamino)-2-oxo-ethoxy]benzoyl]-4-amino-thiazol-2-yl]-4-fluoro-anilino)propanamide] belongs 12.7 nM; to `CC(C(N)=O)N(c1ccc(F)c(F)c1)c1nc(N)c(C(=O)c2ccc(OC(F)F)nc2)s1` (single isomer, unassigned) [Example 163.1, 2-(N-[4-amino-5-[6-(difluoromethoxy)pyridine-3-carbonyl]thiazol-2-yl]-3,4-difluoro-anilino)propanamide], 5 nM.
